Source: patent US10463592B2, “Peptide with anti-aging effect and use thereof” (Osaka University, priority 2013, dated 2019)
Where no end group is shown, it is not given here.

How the values were obtained:
CD86 expression in THP-1 = experiment: h-CLAT assay, CD86 expression; type: cell-based, human; conditions: positive if RFI of CD86>150, FIG. 2
Protocol: Into a 75-cm^2 flask was placed 50 mL of a suspension of the human monocytic cell line THP-1 (JCRB accession number: JCRB0112) at a density of 2.0×10^5 cells/mL in RPMI 1640 culture medium containing 10% FBS and 0.05 mM mercaptoethanol. The cells were precultured for 48 hours. The precultured THP-1 cells were harvested by centrifugation and suspended at 2.0×10^6 cells/mL in RPMI 1640 culture medium containing 10% FBS and 0.05 mM mercaptoethanol. To each well of 24-well plates, 500 μL of the cell suspension was seeded. To each well containing the seeded cell suspension, 500 μL of each peptide in the same culture medium was added. After 24 hours of incubation, the cells were harvested by centrifugation and were washed twice with PBS containing 0.1% BSA (FACS buffer). The cells were then suspended in 600 μL of FACS buffer containing a 0.01% human γ-globulin solution (Sigma, G2388) and incubated at 4° C. for 10 minutes to block the Fc receptor. The cell suspension was then split into three 180-μL aliquots for conducting an antibody reaction. The aliquots were each transferred to a 1.5-mL tube and centrifuged to give a pellet. To each pellet was added 50 μL of each of solutions of three different FITC-conjugated antibodies, i.e., FITC-conjugated CD86 antibody (Pharmingen; Cat #555657), FITC-conjugated CD54 antibody (Dako; Cat #F7143) and FITC-conjugated isotype control (Mouse IgG) antibody (Dako; Cat #X0927), that were adjusted to an appropriate concentration with FACS buffer. The mixture was incubated at 4° C. for 30 minutes. After the incubation, the cells were harvested by centrifugation and washed twice with FACS buffer. The cells were harvested by centrifugation and suspended in 200 μL of FACS buffer containing 0.625 μg/mL propidium iodide. Then, 1×10^4 living cells were analyzed by flow cytometry to determine the expression levels of the cell surface antigens. No gating on forward or side scatter was used. The relative fluorescence intensities (RFIs) were calculated from the mean of the measured fluorescence intensities (MFIs) in accordance with the following equation.
(§1) From the survival rates and the RFI values of CD86 and CD54 expressions, the sensitization potentials were evaluated. The sensitization potentials of the test samples were determined to be positive when the RFIs of the antigen expressions in the sample treatment groups satisfy the following equations: the RFI of CD86>150, and the RFI of CD54>200. (2) Results

CD54 expression in THP-1 = experiment: h-CLAT assay, CD54 expression; type: cell-based, human; conditions: positive if RFI of CD54>200; FIG. 3
Protocol: (§2) Into a 75-cm^2 flask was placed 50 mL of a suspension of the human monocytic cell line THP-1 (JCRB accession number: JCRB0112) at a density of 2.0×10^5 cells/mL in RPMI 1640 culture medium containing 10% FBS and 0.05 mM mercaptoethanol. The cells were precultured for 48 hours. The precultured THP-1 cells were harvested by centrifugation and suspended at 2.0×10^6 cells/mL in RPMI 1640 culture medium containing 10% FBS and 0.05 mM mercaptoethanol. To each well of 24-well plates, 500 μL of the cell suspension was seeded. To each well containing the seeded cell suspension, 500 μL of each peptide in the same culture medium was added. […] Then, 1×10^4 living cells were analyzed by flow cytometry to determine the expression levels of the cell surface antigens. […] The relative fluorescence intensities (RFIs) were calculated from the mean of the measured fluorescence intensities (MFIs) in accordance with the following equation.
as §1, with “(2) Results” left out

[1] = tested on: human monocytic cell line THP-1; experiment: Sensitization test by the h-CLAT assay (overall evaluation); type: cell-based; conditions: even at high concentrations; positive if RFI of CD86>150 and RFI of CD54>200; 24 hours
Protocol: as §2
as §1, with “(2) Results” left out

Compound	sensitization potential for CD86 expression (CD86 expression in THP-1; at high concentrations)	sensitization potential for CD86 expression (CD86 expression in THP-1; at low concentrations)	sensitization potential for CD54 expression (CD54 expression in THP-1)	sensitization potential [1]
GIGKFLHSAKKFGKAFVGEIMNS [magainin]	positive	negative	negative	–
Ac-IFLHR-NH2 [OSK-6, IFLHR]	–	–	–	negative
CC[C@H](C)[C@H](NC(=O)[C@H](CCCCN)NC(=O)[C@H](CCC(=O)O)NC(=O)[C@H](CCCCN)NC(=O)[C@H](CO)NC(=O)[C@H](CCCCN)NC(=O)[C@H](CCCNC(=N)N)NC(=O)[C@H](Cc1ccccc1)NC(=O)[C@H](Cc1ccccc1)NC(=O)[C@H](CC(=O)O)NC(=O)CNC(=O)[C@H](CC(C)C)NC(=O)[C@@H](N)CC(C)C)C(=O)NCC(=O)N[C@@H](CCCCN)C(=O)N[C@@H](CCC(=O)O)C(=O)N[C@@H](Cc1ccccc1)C(=O)N[C@@H](CCCCN)C(=O)N[C@@H](CCCNC(=N)N)C(=O)N[C@H](C(=O)N[C@H](C(=O)N[C@@H](CCC(N)=O)C(=O)N[C@@H](CCCNC(=N)N)C(=O)N[C@H](C(=O)N[C@@H](CCCCN)C(=O)N[C@@H](CC(=O)O)C(=O)N[C@@H](Cc1ccccc1)C(=O)N[C@@H](CC(C)C)C(=O)N[C@@H](CCCNC(=N)N)C(=O)N[C@@H](CC(N)=O)C(=O)N[C@@H](CC(C)C)C(=O)N[C@H](C(=O)N1CCC[C@H]1C(=O)N[C@@H](CCCNC(=N)N)C(=O)N[C@H](C(=O)N[C@@H](CCC(=O)O)C(=O)N[C@@H](CO)C(=O)O)[C@@H](C)O)C(C)C)[C@@H](C)CC)C(C)C)[C@@H](C)CC [LL-37]	positive	negative	negative	–
Ac-HRLKR-NH2 [OSK-9, HRLKR]	–	–	–	negative
